This passage reports residual activity and IC50 results from ChEMBL document CHEMBL2375344, “Identification of pyrrolo[2,3-g]indazoles as new Pim kinase inhibitors” (Bioorg Med Chem Lett, 2013).

pIC50: −log10 of the molar value.

In assay [1] the target is T1, Serine/threonine-protein kinase pim-1 (Homo sapiens, UniProt P11309). The assay can be described thus: Inhibition of human full length Pim-1 using RSRHSSYPAGT as substrate assessed as residual activity at 10 uM after 30 mins in presence of [gamma-33P]ATP; values are per cent of control.
Target sequence in this assay (P11309 whole entry, looked up): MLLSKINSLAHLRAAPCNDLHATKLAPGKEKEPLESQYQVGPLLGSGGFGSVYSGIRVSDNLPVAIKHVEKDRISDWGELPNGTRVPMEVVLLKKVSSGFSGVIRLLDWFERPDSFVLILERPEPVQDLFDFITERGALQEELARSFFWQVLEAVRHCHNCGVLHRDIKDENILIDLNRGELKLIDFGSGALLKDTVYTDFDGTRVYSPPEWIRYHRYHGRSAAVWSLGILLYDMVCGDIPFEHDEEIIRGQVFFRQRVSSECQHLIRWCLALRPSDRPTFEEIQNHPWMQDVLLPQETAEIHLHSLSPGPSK
Assay [2] has as its target Serine/threonine-protein kinase pim-2 (Homo sapiens) (UniProt Q9P1W9). In words: Inhibition of human full length Pim-2 using RSRHSSYPAGT as substrate assessed as residual activity at 1 uM after 30 mins in presence of [gamma-33P]ATP; values are per cent of control.
For assay [3], the target named is T2, Serine/threonine-protein kinase pim-3 (Homo sapiens, UniProt Q86V86). The assay can be described thus: Inhibition of human full length Pim-3 using RSRHSSYPAGT as substrate assessed as residual activity at 10 uM after 30 mins in presence of [gamma-33P]ATP; values are per cent of control.
Assay [4] deals with T1, Serine/threonine-protein kinase pim-1. The assay can be described thus: Inhibition of human full length Pim-1 using RSRHSSYPAGT as substrate assessed as residual activity at 1 uM after 30 mins in presence of [gamma-33P]ATP; values are per cent of control.
Target sequence in this assay (P11309 whole entry, looked up): as the sequence (P11309 whole entry, looked up) above
The target of assay [5] is Serine/threonine-protein kinase pim-2 (Homo sapiens) (UniProt Q9P1W9). The assay can be described thus: Inhibition of human full length Pim-2 using RSRHSSYPAGT as substrate assessed as residual activity at 10 uM after 30 mins in presence of [gamma-33P]ATP; values are per cent of control.
The target in assay [6] is T2, Serine/threonine-protein kinase pim-3. The assay can be described thus: Inhibition of human full length Pim-3 using RSRHSSYPAGT as substrate assessed as residual activity at 1 uM after 30 mins in presence of [gamma-33P]ATP; values are per cent of control.
The target is the same in assay [7]. In words: Inhibition of human full length Pim-3 using RSRHSSYPAGT as substrate assessed as residual activity after 30 mins in presence of [gamma-33P]ATP.
Assay [8] has as its target T1, Serine/threonine-protein kinase pim-1. The assay can be described thus: Inhibition of human full length Pim-1 using RSRHSSYPAGT as substrate assessed as residual activity after 30 mins in presence of [gamma-33P]ATP.
Target sequence in this assay (P11309 whole entry): as the sequence (P11309 whole entry, looked up) above

Sequence of Serine/threonine-protein kinase pim-2 (Homo sapiens) (Q9P1W9 whole entry, looked up): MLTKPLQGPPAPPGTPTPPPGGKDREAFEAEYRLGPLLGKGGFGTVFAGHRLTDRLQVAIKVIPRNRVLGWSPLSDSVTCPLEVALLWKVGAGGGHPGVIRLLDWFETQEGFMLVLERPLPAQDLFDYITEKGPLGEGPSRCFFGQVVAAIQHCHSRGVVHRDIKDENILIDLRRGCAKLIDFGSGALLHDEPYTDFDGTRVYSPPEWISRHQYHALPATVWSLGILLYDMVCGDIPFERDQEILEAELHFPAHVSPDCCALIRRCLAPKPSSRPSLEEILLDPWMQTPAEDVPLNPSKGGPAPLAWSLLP

What is called residual activity is the signal under treatment as a percentage of the control signal. As for `Cc1c[nH]c2c([N+](=O)[O-])cc3cn[nH]c3c12`, the residual activity in assay [1] was 26%; in assay [2] it was 99%; in assay [3], 26%; in assay [4] it was 68%; in assay [5], 61%; in assay [6], 77%.
In the case of `Cc1c[nH]c2c(N)cc3cn[nH]c3c12`, the residual activity stood at 63% in assay [1]; 105% in assay [2]; 17% in assay [3]; 91% in assay [4]; 88% in assay [5]; 65% in assay [6].
The pIC50 is −log10 of the IC50, conventionally taken in molar units. Consider `O=[N+]([O-])c1cc2cn[nH]c2c2c(-c3ccccc3)c[nH]c12`, for which the results for the negative logarithm of the IC50 (pIC50) in assay [7] and in assay [8] were 6.28 and 6.00, respectively. The residual activity in assay [1] is 28%; in assay [2], 82%; in assay [3], 21%; in assay [4] it was 52%; in assay [5], 70%; in assay [6] it was 38%.
`CCOC(=O)c1[nH]c2c(N)cc3cn[nH]c3c2c1-c1ccccc1`: the residual activity in assay [1] came out at 29%; in assay [2] it was 101%; in assay [3] it was 20%; in assay [4], 74%; in assay [5], 74%; in assay [6] it was 72%.
As to `CCOC(=O)c1[nH]c2c(N)cc3cn[nH]c3c2c1C`, the residual activity stood at 61% in assay [1]; 102% in assay [2]; 26% in assay [3]; 93% in assay [4]; 97% in assay [5]; 93% in assay [6].
As for `Nc1cc2cn[nH]c2c2cc[nH]c12`, the pIC50 in assay [7] was 7.48; in assay [8], 6.34. Moreover, the residual activity in assay [1] turned out to be 17%; in assay [2], 99%; in assay [3] it was 4%; in assay [4], 63%; in assay [5], 104%; in assay [6], 20%.
Consider `C[Si](C)(C)c1cc2c([nH]1)c(N)cc1cn[nH]c12`, for which the residual activity in assay [1] turned out to be 52%; in assay [2], 93%; in assay [3], 24%; in assay [4] it was 94%; in assay [5], 111%; in assay [6] it was 67%.
Regarding `CCCc1c[nH]c2c([N+](=O)[O-])cc3cn[nH]c3c12`, the pIC50 in assay [7] is 6.59. The residual activity in assay [1] stood at 54%; in assay [2], 66%; in assay [3], 6%; in assay [4], 78%; in assay [5] it was 27%; in assay [6], 24%.
`CCCc1c(C(=O)OC)[nH]c2c(N)cc3cn[nH]c3c12`: the residual activity was 26% in assay [1]; 105% in assay [2]; 12% in assay [3]; 71% in assay [4]; 78% in assay [5]; 82% in assay [6].
`CCOC(=O)c1[nH]c2c([N+](=O)[O-])cc3cn[nH]c3c2c1C`: the residual activity in assay [1] stood at 72%; in assay [2], 105%; in assay [3], 47%; in assay [4] it was 78%; in assay [5], 97%; in assay [6], 72%.
As to `CCOC(=O)c1[nH]c2c([N+](=O)[O-])cc3cn[nH]c3c2c1-c1ccccc1`, the residual activity in assay [1] came to 55%; in assay [2] it was 92%; in assay [3], 90%; in assay [4] it was 86%; in assay [5], 113%; in assay [6], 73%.
On to `CCOCc1c[nH]c2c([N+](=O)[O-])cc3cn[nH]c3c12`, for which the residual activity in assay [1] amounted to 26%; in assay [2], 109%; in assay [3] it was 19%; in assay [4], 82%; in assay [5], 63%; in assay [6], 71%.
Turning to `O=Cc1c[nH]c2c([N+](=O)[O-])cc3cn[nH]c3c12`, the residual activity in assay [1] is 27%; in assay [2], 117%; in assay [3] it was 25%; in assay [4], 97%; in assay [5], 70%; in assay [6] it was 76%.
Regarding `CCCc1c(C(=O)OC)[nH]c2c([N+](=O)[O-])cc3cn[nH]c3c12`, the pIC50 in assay [7] was 6.26. The residual activity in assay [1] amounted to 39%; in assay [2], 113%; in assay [3] it was 24%; in assay [4], 110%; in assay [5] it was 85%; in assay [6], 50%.
`Nc1cc2cn[nH]c2c2c(-c3ccccc3)c[nH]c12`: the residual activity in assay [1] stood at 51%; in assay [2], 103%; in assay [3], 26%; in assay [4] it was 111%; in assay [5], 92%; in assay [6], 68%.
Take `C[Si](C)(C)c1cc2c([nH]1)c([N+](=O)[O-])cc1cn[nH]c12`: the pIC50 in assay [7] is 6.33. Further, the residual activity in assay [1] stood at 17%; in assay [2] it was 103%; in assay [3], 9%; in assay [4], 63%; in assay [5], 64%; in assay [6] it was 51%.
For `CCCc1c[nH]c2c(N)cc3cn[nH]c3c12`, the residual activity worked out at 57% in assay [1]; 90% in assay [2]; 39% in assay [3]; 104% in assay [4]; 93% in assay [5]; 79% in assay [6].
As for `O=[N+]([O-])c1cc2cn[nH]c2c2cc[nH]c12`, the residual activity in assay [1] is 30%; in assay [2], 92%; in assay [3] it was 18%; in assay [4], 102%; in assay [5] it was 80%; in assay [6], 78%.
Turning to `CCc1[nH]c2c([N+](=O)[O-])cc3cn[nH]c3c2c1-c1ccccc1`, the pIC50 in assay [7] was 6.92; in assay [8] it was 6.64. In addition, the residual activity in assay [1] was found to be 51%; in assay [2] it was 77%; in assay [3], 36%; in assay [4], 43%; in assay [5], 84%; in assay [6], 31%.
`CCc1[nH]c2c(N)cc3cn[nH]c3c2c1-c1ccccc1`: the residual activity in assay [1] was determined as 44%; in assay [2] it was 91%; in assay [3], 23%; in assay [4] it was 92%; in assay [5], 75%; in assay [6], 72%.
